The text below walks through data of US20100093611A1, “COMPOUNDS AND METHODS FOR TREATING OR PREVENTING AUTOIMMUNE DISEASES” (priority 2007, published 2010).

Assay [1] has as its system SLE-associated gene signature as induced by SLE serum. The assay is described as follows: SLE serum-induced IFN-α gene signature in freshly isolated monocytes (HITS qPCR). Format: cell-based, human. Particulars: for Percentage inhibition of the six most robustly induced IFN-α signature genes induced by SLE serum: 1 μm, monocytes stimulated with 50% SLE patient serum, mean of six genes vs vehicle control; for Upregulation of the six most robustly induced IFN-α signature gene set by 50% lupus serum (in words): freshly isolated monocytes, dose dependent (FIG. 4). The source says: RNA from lysed cells was examined by qPCR analysis in HITS assay. […] Each bar represents the average+/−SEM of three independent experiments using serum from different SLE patients.
Stimulation of healthy donor PBMCs with serum isolated from SLE patients induces the up-regulation of IFN-α pathway-associated genes (Interfon-induced genes, IFIGs), such as MX1^31. Furthermore, expression of IFIG correlates with disease severity and organ involvement^31, 32. To further evaluate the role of small molecular inhibitors on the type I IFN gene signature, freshly isolated monocytes stimulated with 50% lupus serum were used in HITS assays. […] Importantly, these experiments were performed with SLE serum from patients with well characterized biochemical profiles.
SLE patient and control serum were purchased from Bioreclamation (Hicksville, N.Y.). IFN-α 2a was obtained from PBL Biomedical laboratories (Piscataway, N.J.). Fresh PBMCs from healthy donor were prepared by Ficoll-hypaque fraction according to the manufactory's instruction. Cells were cultured at 2×10^5 cells/0.1 ml in 96-well flat-bottomed plates in culture medium.
To determine the effect of compounds on gene expression, compounds and vehicle controls were pre-incubated with cells for 30 min at 37° C. before stimulation with 50% lupus serum or 100 IU/ml IFN-α 2a were incubated with PBMC. After 6 h stimulation, cells were lysed in Qiagen 2XTCL lysis buffer followed by HITS analysis (see FIG. 2).

A further assay relates to HSV-1. The assay is described as follows: In vitro anti-viral assay, HSV-1/luciferase replication in Hep-2 cells with IFN-α. Format: cell-based, Herpes Simplex Virus-1. The protocol: Hep-2 cells were seeded at 2×10^4 cells/well in 96 well plates. Cells were infected with HVS1 at an Multiplicity Of Infection (MOI) of 5 for 1 h at 37° C. 24 hours post-seeding. Virus was aspirated, cells were washed, and 200 μl of medium with or without IFN-α or compound were added as indicated. After 48 h, cells were washed, lysed and luciferase activity were measured according to the manufacturer's instructions. […] Each bar represents the mean+/−SEM of triplicates from one experiment.
Herpes Simplex Virus-1 (HSV-1) represents one of the major recurrent virus infections observed in SLE patients^37. Type-I and Type-II IFN signals are known to block HSV-1 dissemination in mice^38, and as a consequence, a therapeutic approach that neutralizes their combined activity may constitute an important safety concern. Therefore, the impact of Apicidin 1a, IKK2 inhibitor IV, and JAK inhibitors on HSV-1 replication regulated by IFN-α in Hep-2 cells was examined in vitro. HSV-1/luciferase was used to infect Hep-2 cells, and viral replication was monitored by luciferase expression.
Hep-2 cells were propagated in MEM (Invitrogen) with 10% fetal bovine serum. HSV-1 recombination virus with both firefly and Renilla luciferase genes in a divergent orientation from a single multiple cloning site were a gift from Dr. Leib's lab. Hep-2 cells were seeded at 2×10^4 cells/well in 96 well plate, 24 h post seeding, cells were infected with virus at an MOI of 5, after absorption for 1 h at 37° C., free viral particles were removed by aspiration, cells were washed, and 200 μl medium containing IFN-α with or without test compounds. After 48 h incubation, cells were washed and lysed in 20 μl of Passive Lysis Buffer (Promega Inc; Madison, Wis.) frozen, thawed, and assayed for firefly and Renilla luciferase activity using the Dual Luciferase Assay kit (Promega).

Another assay concerns IP-10. Kind of assay: IFN-α induced chemokine release in vivo (adenovirus IFN-α5, serum IP-10 ELISA). On the set-up: species or system Female NZBW/F1 mice. The protocol: Freshly isolated monocytes were treated with 500 IU/ml IFN-α with or without indicated compounds for 48 h. Supernatants were collected and MCP-1 and IP-10 levels were analyzed by Searchlight Inc. Percentage inhibition represents inhibition of the upregulation of chemokine induced by IFN-α compared to the vehicle control. Panel A: Effect of compounds on IP-10 secretion. Panel B: Effect of compounds on MCP-1 secretion. Each bar represents the average+/−SEM of three independent experiments. Panel C: IKK2 inhibitor IV blocked IFN-α induced IP-10 protein level in vivo. Female NZBW/F1 mice were treated with either antibody (i.p. injection 30 mg/kg) or IKK2 inhibitor (45 mg/kg BID) as described in materials and methods. Adenovirus-IFN-a (1×10^10 viral particles) was administrated i.v. at time 0. Samples were collected 6 h post-stimulation, IP-10 protein level was measured by ELISA. Data representative of two experiments.
Next, the effect of IKK-2 inhibitor IV in IP-10 and MCP-1 expression was examined in vivo. To induce IP-10 and MCP-1 expression, mice were infected with adenovirus encoding IFN-α5. As a result, IP-10 but not MCP-1 levels were detected in serum (data not shown). […]
Female NZBW/F1 mice (Jackson Laboratories, Bar Harbor, Me.) were housed in pathogen-free conditions with access to food and water. […] Serum levels of IP10 were assessed by ELISA (R&D Systems, Minneapolis, Minn.). […]
For orientation: In an ELISA, binding on a coated surface is turned into a signal by an enzyme label.

The structures appear in SMILES notation.

With `CCC(=O)CCCCC[C@@H]1NC(=O)[C@H]2CCCCN2C(=O)C([C@@H](C)CC)NC(=O)[C@H](Cc2cn(OC)c3ccccc23)NC1=O` (stereo partly drawn) [Compound 2, Apicidin], in assay [1], the “Percentage inhibition of the six most robustly induced IFN-α signature genes induced by SLE serum” value is on record as 80% and the “Upregulation of the six most robustly induced IFN-α signature gene set by 50% lupus serum (in words)” value is recorded as “blocked the upregulation”. Also, the “Effect on anti-viral effects of IFN-α at low dose” value with HSV-1 (HSV-1, 0.1 μm (FIG. 7C)) is reported as “inhibited anti-viral effects of IFN-α”. For the same molecule, the “IFN-α dependent anti-viral activity at higher dose” value with HSV-1 (HSV-1, higher dose where MCP-1 production is inhibited (FIG. 7C)) is “abolished or viral growth was actually promoted”.

Take `NC(=O)Nc1sc(-c2ccc(F)cc2)cc1C(N)=O` [Compound 5, IKK-2 Inhibitor IV]: the “IFN-α induced IP-10 protein level in vivo (in words)” value with IP-10 (Female NZBW/F1 mice, 45 mg/kg BID, 6 h post-stimulation, ELISA (FIG. 6C)) is listed as “blocked”. Moreover, the “Inhibition of levels of serum IP-10” value with IP-10 (mice infected with adenovirus encoding IFN-α5, 6 h post-stimulation, IKK2 inhibitor 45 mg/kg BID, antibody i.p. 30 mg/kg) is on record as 98%. In addition, in assay [1], the “Percentage inhibition of the six most robustly induced IFN-α signature genes induced by SLE serum” value came to 77% and the “Upregulation of the six most robustly induced IFN-α signature gene set by 50% lupus serum (in words)” value was “blocked the upregulation”. Moreover, the “Effect on IFN-α dependent anti-viral activity (HSV-1 replication)” value with HSV-1 (MOI 5, 48 h, even at higher doses (FIG. 7A, 7B)) is “retained the majority of IFN-α dependent anti-viral activity”.
